Experimental data from patent publication US20020071842A1, “Soluble CD1 compositions and uses thereof” (priority 2000, published 2002).
Entries after “also recorded” stand apart in the source; their conditions may differ.

System: 24.8.A hybridoma
Assay: Plate-bound mCD1d fusion protein hybridoma stimulation assay (IL-2 ELISA)
Assay type: cell-based, mouse
Conditions: for IL-2 response to mCD1d fusion protein pre-treated with purified or synthetic lipid: compared to untreated or buffer treated fusion protein; for IL-2 secretion: 24.8 A NKT hybridoma, plate-bound mCD1d-IgGFc2a fusion protein preincubated with lipid antigen
How it was run: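 Protein A plates were loaded with 400-600 ng/well mCD1d fusion protein, then given lipid antigen (40:1 molar ratio to fusion protein unless specified) in PBS pH 7.2 for 24-48 h at 37 °C. After washing, 1×10^5 hybridoma cells/well were added for 16-20 h at 37 °C. Secreted IL-2 measured by sandwich ELISA against a murine IL-2 standard curve.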

| Compound | IL-2 response to mCD1d fusion protein pre-treated with purified or synthetic lipid (24.8.A hybridoma) | IL-2 secretion | IL-2 produced in the presence of the 19G11 anti-mCD1d mAb (24.8.A hybridoma, representative experiment, 19G11 blocking antibody included) | mean IL-2 secreted (24.8.A hybridoma, representative experiment, mCD1d fusion protein pre-treated with antigen) | reduction of IL-2 secretion by phospholipase treatment of the antigen (PI treated with PLC or PLD prior to pre-incubation with the mCD1d fusion protein) |
| --- | --- | --- | --- | --- | --- |
| CCCCCCCCCCCCCCCCCCCCCCCCCC(=O)N[C@@H](CO[C@H]1O[C@H](CO)[C@H](O)[C@H](O)[C@H]1O)[C@H](O)[C@H](O)CCCCCCCCCCCCCC [α-GalCer, α-galactosylceramide] | only a slightly enhanced response; also recorded: little IL-2 was secreted | + (“+” indicates 50-250 pg/ml) |  |  |  |
| phosphatidylinositol [PI] | marked increase of IL-2 production; also recorded: significantly enhanced IL-2 release | +++ (“+++” indicates greater than 1000 pg/ml IL-2) | no detectable IL-2 | 4,746 pg/ml | approximately 70% |
| unglycosylated ceramide |  | + (“+” indicates 50-250 pg/ml) |  |  |  |
| β-galactosylceramide [β-GalCer] |  | + (“+” indicates 50-250 pg/ml) |  |  |  |
